Experimental findings from US10646565B2, “Treatment of alzheimer'S disease (AD) with an aluminum salt” (AFFIRIS AG, priority 2014, dated 2020) are described below.

This test relates to patients with early AD. Description: AFF006 clinical trial: Quality of Life (QOL) caregiver. The settings on record: 2 mg compared to 1 mg and other groups, over a period of 18 months, FIG. 5. Type of test: in vivo, human. The text has this:
Caregivers completed the measure as a questionnaire about their patients' QOL. The measure consisted of 13 items, rated on a 4 point scale, with 1 being poor and 4 being excellent. Outcomes are shown as the change over time using a least squares means from a mixed model.
QOL caregiver is a brief, 13-item questionnaire designed to specifically obtain a rating of the QOL of the patient from the caregiver's perspective. Questions cover relationships with friends and family, concerns about finances, physical condition, mood, and an overall assessment of life quality. All items are rated on a four-point scale, with 1 being poor and 4 being excellent. The total score is the sum of all items, which can range from 13 to 52. QOL caregiver values are presented here as the change from baseline. Outcomes were measured at Visits 1, 6, 8, and 10.

For aluminium oxyhydroxide, the “QOL of the patient rated by caregivers (QOL-AD)” value was “significantly improved”.
